Earlier results on 1 molecule are cited in patent US20080153738A1, “COMPOSITIONS AND METHODS FOR TREATMENT OF HYPERPLASIA” (priority 1997, published 2008).

This data set has as its system in-stent restenosis in porcine coronary arteries.

On to `CC(=O)O[C@H]1C(=O)[C@@]2(C)[C@H]([C@H](OC(=O)c3ccccc3)[C@]3(O)C[C@H](OC(=O)[C@H](O)[C@@H](NC(=O)c4ccccc4)c4ccccc4)C(C)=C1C3(C)C)[C@]1(OC(C)=O)CO[C@@H]1C[C@@H]2O` [paclitaxel, Paclitaxel], for which, for the setting “90 μg paclitaxel stents”, the neointimal area result was “significant reduction in neointimal area”. For the same molecule, the Lumen area result (15 and 90 μg paclitaxel stents, directly applied without polymer) is “Lumen area was increased”. Where the note is “stents coated with 90 μg of paclitaxel”, the local cytotoxic effects entry is given as “significant local cytotoxic effects were observed”. For the same molecule, the “diameter stenosis and neointimal area” value (stents coated with biodegradable polymer, slow-release paclitaxel 175-200 μg/stent, 4 weeks) is “reduction in diameter stenosis and neointimal area”.
